According to patent publication US11419902B2, “Compositions comprising bacterial strains” (4D Pharma Research Limited, priority 2018, dated 2022):

Columns and labels:
[1] = test system: β3Tubulin; experiment: β3Tubulin expression in SH-SY5Y cells (immunostaining, immunoblotting); assay type: cell-based; settings: undifferentiated SH-SY5Y cells, 10% bacterial supernatant 24 h, vs untreated cells
Method: Cells were seeded onto 8-well chamber slides (Marienfeld Laboratory Glassware) at 5×10^4 cells/well overnight and were treated with 10% bacterial supernatant for 24 h. For differentiation, cells were treated with 10 nM RA for 5 days before treating with cell-free bacterial supernatant for 24 h.
Afterwards, the cells were fixed with 4% paraformaldehyde in PBS for 20 minutes at room temperature (RT). Fixed cells were washed with PBS, and permeabilized with 1% Triton X-100 in PBS for 10 minutes. After washing with PBS, the slides were incubated with blocking buffer (4% BSA/PBS) for 1 h at RT before adding anti-MAP2 antibody or β3-tubulin (sc-74421 and sc-80005 respectively, Santa Cruz Biotechnology Inc) diluted in 1% BSA/PBS for 12 h at 4° C. They were then washed twice with PBS, followed by incubation with Alexa Flour 488 conjugated anti-mouse (Molecular Probes Inc) and Alexa Flour 594 conjugated Phalloidin (ab176757, Abcam) for 1 h at RT. […]
SH-SY5Y cells cultured under the indicated conditions described above, treated with MRx0029 for 24 h and then lysed in RIPA buffer containing cocktail of protease inhibitors (Roche Diagnostics, UK). […] The blots were then incubated with the appropriate horseradish peroxidase (HRP)-conjugated secondary antibody, and proteins were detected by chemiluminescence detection kit (Pierce Biotechnology, Rockford, Ill.). […]

[2] = test system: MAP2; experiment: MAP2 gene expression in 451Lu cell line (qPCR); assay type: cell-based; settings: relative to the cell line only negative control
Method: Cells were plated in 12-well plates at density of 2×10^5 cells/well. After 24 h cells were treated with either DMSO or Vemurafenib (662005; EMD Millipore; VEMU; SKMEL28, SKMEL31, 451Lu, HT29 (1 μM) SKMEL2 (10 μM) or Azacytidine-C (A3656; Sigma Aldrich; AzaC; 5 μg/ml) or both drugs (VEMU+Aza) together, in presence of 10% bacteria supernatants or absence of it (YCFA+). Total RNA was extracted using the RNeasy mini kit (Qiagen, Manchester, UK) according to the manufacturer's instructions, and the RNA concentration was determined by spectrophotometer at 260/280 nm (NanoDrop ND-1000; Thermo Fisher Scientific, Loughborough). For mRNA expression analysis, cDNA was prepared from 2000 ng of total RNA using the High-Capacity cDNA reverse transcription kit (Thermo Fisher, Loughborough) according to the manufacturer's instructions. The reverse transcription reactions were performed in a thermocycler (Biometra, Germany) at 25° C. for 10 min, 37° C. for 120 min, and 85° C. for 5 min Resulting cDNA was amplified in duplicates by the SYBR-Green PCR assay, and products were detected on QuantStudio 6 flex real-time PCR machine (Applied Biosystems, UK) using a standardised profile (initial denaturation of 95° C. for 10 minutes, followed by 40 cycles of 10 seconds of denaturation at 95° C. and 30 seconds of annealing/extension at 65° C.). […]

[3] = test system: IL-8; experiment: IL-8 secretion in U373 cells treated with SCFAs or supernatant fractions (ELISA); assay type: cell-based, Human; settings: U373 cells, with or without 1 μg/ml LPS, 24 h
Method: Human glioblastoma astrocytoma cell line (U373), were maintained in 25 ml MEME 4.5 g/L D-glucose supplemented with 10% heat-inactivated FBS, 4 mM L-Glutamine, 100 U/ml penicillin, 100 μg/ml streptomycin and 5 μg/ml plasmocin, 1% Non-Essential Amino Acids, 1% Sodium Pyruvate (referred to as full growth media).
U373 cells were prepared as described above. Cells were pre-treated for 1 h with 1 μg/ml LPS indicated above and incubated at 37° C. and 5% CO2. After 1 h pre-incubation, cells were removed from CO2 incubator and treated with increasing concentration of fresh prepared Sodium Butyrate (SB), Sodium Valerate (SV) and Hexanoic Acid (HA).
U373 cells were prepared as described above. Cells were pre-treated for 1 h with 1 μg/ml LPS as indicated above. Afterwards, cells were removed from CO2 incubator and treated with 100 μl of the different fractions. Fractions from media were used as controls. Cell-free supernatants were collected 24 h after treatment and analysed by ELISA for IL-8 secretion (as outlined above).

Megasphaera massiliensis MRx0029
expression of β3Tubulin [1]: increases the expression of β3Tubulin | MAP2 gene expression [2]: increased MAP2 gene expression | IL-8 secretion in the presence and absence of LPS [3]: induced IL-8 secretion
